Experimental data: patent US8178534B2, “cMET inhibitors” (Takeda Pharmaceutical Company Limited, priority 2008, dated 2012)

Columns and labels:
[1] = molecular target: T1, cMET enzyme (amino acids 1023-1360) (Homo sapiens, UniProt P08581); experiment: Determination of inhibition of cMET (capillary electrophoresis, phosphorylated peptide product); type: biochemical; details: 1.2 nM cMET, 50 μM ATP, 2 μM FL-2 peptide, 2 hours room temperature
T1 construct: The cMET enzyme (amino acids 1023-1360) nominally at 24 μM was held at −80° C. until use; His tag (N, cleaved yes); made in house; host or cells: Sf9 cells
Protocol: The inhibitory property of a compound relative to cMET catalysis was determined by use of capillary electrophoresis with fluorescence quantification of a phosphorylated peptide product for cMET. The cMET enzyme (amino acids 1023-1360) nominally at 24 μM was held at −80° C. until use, in a buffer containing 25 mM Tris-HCl pH 8.5, 150 mM NaCl, 3 mM DTT and 10% glycerol. […] Following purification, the tag was removed and enzyme concentrated. […] To activate the enzyme fully, frozen cMET was thawed quickly and activated with the addition of assay buffer (50 mM HEPES pH 7.5, 10 mM NaCl, 10 mM MgCl2, 0.01% Brij® 35), 1.25 mM ATP, 5 mM MgCl2 and 5 mM DTT at a cMET concentration of 2.4 μM followed by a 30 minute incubation at room temperature. […] Next, cMET enzyme (1.2 nM final) was added and the system incubated at room temperature for 20 minutes. Catalysis was initiated by the addition of ATP (50 μM final). Assays were incubated at room temperature for 2 hours then quenched by the addition of EDTA. Phosphorylated peptide product was quantified by monitoring fluorescence during capillary electrophoresis with Caliper LifeSciences LabChip 3000 under the following settings: base pressure=−0.1 psi, screen pressure=−1.2 psi, downstream voltage=−500 V, upstream voltage=−2300 V, chip type=TC372. The elution buffer was identical to the assay buffer except for the absence of DTT, FL-2 and ATP and the addition of 0.1% coating reagent (Caliper). […] Peak height was quantified and used to determine enzyme velocities.
IC50 values were calculated by non-linear least squares curve fitting of the standard IC50 equation to background-corrected cMET velocity versus compound concentration.

[2] = test system: EBC1; experiment: Inhibition of cell viability (MTS), EBC1; type: cell-based; details: Homo sapiens, 96 hours incubation
Protocol: (§1) Cells were maintained at 37° C. in a humidified atmosphere containing 5%-8% CO2 following the instructions of the supplier (American Type Culture Collection (Rockville, Md.)). Inhibition of cell viability was determined for a panel of tumor cell lines (MKN45, EBC1 and A549), using the soluble tetrazolium salt, MTS (Promega, Madison, Wis.). Cells were seeded at 2,000-7,500 cells/well in 96-well tissue culture plates and were allowed to attach for approximately 24 hours prior to addition of compounds or DMSO vehicle. […] Cells were treated in duplicate with test compounds. Compounds were serially diluted (1:2.5) from column 1 to 11 and column 12 contained DMSO vehicle. Compounds were diluted into cell growth medium then compound solution was added to cells. Equal amounts of DMSO were added to cells (final concentration is 0.5%). After background correction and normalization against DMSO-treated cells, EC50 values were calculated using non-linear curve-fitting of the cell viability as a function of compound concentration. The MKN45 and EBC1 cell lines contain high levels of phospho-Met and are dependent on cMET for proliferation, whereas the A549 line is used as negative control.
(§2) EC50 values may be calculated by non-linear curve fitting of the compound concentrations and fluorescence intensities to the standard EC50 equation.

[3] = test system: A549; experiment: Inhibition of cell viability (MTS), A549 (negative control line); type: cell-based; details: Homo sapiens, A549 cells (negative control), 96 hours incubation
Protocol: as §1, §2

[4] = test system: MKN45; experiment: Inhibition of cell viability (MTS), MKN45; type: cell-based; details: Homo sapiens, 96 hours incubation
Protocol: as §1, §2

T1 sequence (P08581 1023-1360): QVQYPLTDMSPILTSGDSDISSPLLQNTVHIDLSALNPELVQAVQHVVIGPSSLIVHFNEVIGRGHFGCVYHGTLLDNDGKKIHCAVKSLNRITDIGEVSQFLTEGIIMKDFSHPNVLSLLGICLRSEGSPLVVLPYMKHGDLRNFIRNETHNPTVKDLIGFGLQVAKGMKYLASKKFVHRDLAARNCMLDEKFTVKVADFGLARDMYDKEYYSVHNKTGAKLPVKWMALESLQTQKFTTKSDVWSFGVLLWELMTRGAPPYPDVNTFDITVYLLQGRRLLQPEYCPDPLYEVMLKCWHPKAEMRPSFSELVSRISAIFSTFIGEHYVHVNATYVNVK

| SMILES | IC50 [1] [nM] | EC50 ([3]; A549, 96 h) [nM] | EC50 ([4]; MKN-45, 96 h, MKN45 cells) [nM] | EC50 ([2]; EBC-1, EBC1 cells) [nM] | EC50 [3] [nM] | EC50 ([4]; MKN-45, MKN45 cells) [nM] | EC50 ([2]; EBC-1, 96 h, EBC1 cells) [nM] |
| --- | --- | --- | --- | --- | --- | --- | --- |
| N#Cc1ccc2nnc(Sc3ccc4nc(NC(=O)C5CC5)cn4n3)n2c1 [Compound 6, N-(6-(6-cyano-[1,2,4]triazolo[4,3-a]pyridin-3-ylthio)imidazo[1,2-b]pyridazin-2-yl)cyclopropanecarboxamide] | > 100 | – | – | > 200 | > 50000 | > 630 | – |
| O=C(Nc1cn2nc(Sc3nnc4ccc(Cl)cn34)ccc2n1)C1CC1 [Compound 9, N-(6-(6-chloro-[1,2,4]triazolo[4,3-a]pyridin-3-ylthio)imidazo[1,2-b]pyridazin-2-yl)cyclopropanecarboxamide] | 60 to 100 | 8000 to 25000 | 250 to 630 | – | – | – | 100 to 199 |
| Cc1ccc2nnn(Cc3ccc4nc(NC(=O)C5CC5)cn4n3)c2c1 [Compound 12, N-(6-((6-methyl-1H-benzo[d][1,2,3]triazol-1-yl)methyl)imidazo[1,2-b]pyridazin-2-yl)cyclopropanecarboxamide] | > 100 | > 50000 | > 630 | – | – | – | > 200 |
| O=C(Nc1cn2nc(Cn3nnc4ccc(-c5cccc(F)c5)cc43)ccc2n1)C1CC1 [Compound 14] | 30 to 59 | 600 to 1600 | 250 to 630 | – | – | – | 100 to 199 |
| O=C(Nc1cn2nc(Cn3nnc4ccc(-c5ccccc5)cc43)ccc2n1)C1CC1 [Compound 15] | 60 to 100 | 8000 to 25000 | 250 to 630 | – | – | – | 100 to 199 |
| O=C(Nc1cn2nc(Cn3nnc4ccc(-c5cccnc5)cc43)ccc2n1)C1CC1 [Compound 16] | > 100 | > 50000 | > 630 | – | – | – | > 200 |
| CS(=O)(=O)c1ccc(-c2ccc3nnn(Cc4ccc5nc(NC(=O)C6CC6)cn5n4)c3c2)cc1 [Compound 17] | 60 to 100 | > 19500 | < 100 | – | – | – | < 35 |
| CCS(=O)(=O)c1cccc(-c2ccc3nnn(Cc4ccc5nc(NC(=O)C6CC6)cn5n4)c3c2)c1 [Compound 18] | 30 to 59 | > 19500 | 100 to 249 | – | – | – | 100 to 199 |
| COc1cncc(-c2ccc3nnn(Cc4ccc5nc(NC(=O)C6CC6)cn5n4)c3c2)c1 [Compound 19] | 60 to 100 | > 19500 | 250 to 630 | – | – | – | 100 to 199 |
| Cc1n[nH]c(C)c1-c1ccc2nnn(Cc3ccc4nc(NC(=O)C5CC5)cn4n3)c2c1 [Compound 20] | 60 to 100 | > 50000 | 250 to 630 | – | – | – | > 200 |
| CS(=O)(=O)c1cncc(-c2ccc3nnn(Cc4ccc5nc(NC(=O)C6CC6)cn5n4)c3c2)c1 [Compound 21] | > 100 | > 50000 | > 630 | – | – | – | > 200 |
| O=C(Nc1cn2nc(Cn3nnc4ccc(-c5cnn(C[C@H](O)CO)c5)cc43)ccc2n1)C1CC1 [Compound 22] | 60 to 100 | > 50000 | > 630 | – | – | – | > 200 |
| O=C(Nc1cn2nc(Cn3nnc4ccc(-c5cnn(C[C@@H](O)CO)c5)cc43)ccc2n1)C1CC1 [Compound 23] | 30 to 59 | > 50000 | 250 to 630 | – | – | – | 100 to 199 |
| O=C(NCCO)Nc1cn2nc(Sc3nnc4ccc(-c5cccc(F)c5)cn34)ccc2n1 [Compound 27, 1-(6-(6-(3-fluorophenyl)-[1,2,4]triazolo[4,3-a]pyridin-3-ylthio)imidazo[1,2-b]pyridazin-2-yl)-3-(2-hydroxyethyl)urea] | < 30 | – | – | 35 to 99 | > 50000 | < 100 | – |
| COCCOCn1cc(-c2ccc3nnc(Sc4ccc5nc(NC(=O)C6CC6)cn5n4)n3c2)cn1 [Compound 29, N-(6-(6-(1-((2-methoxyethoxy)methyl)-1H-pyrazol-4-yl)-[1,2,4]triazolo[4,3-a]pyridin-3-ylthio)imidazo[1,2-b]pyridazin-2-yl)cyclopropanecarboxamide] | 60 to 100 | – | – | 35 to 99 | > 50000 | < 100 | – |
| O=C(O)c1ccc2nnc(Sc3ccc4nc(NC(=O)C5CC5)cn4n3)n2c1 [Compound 33, 3-(2-(cyclopropanecarboxamido)imidazo[1,2-b]pyridazin-6-ylthio)-[1,2,4]triazolo[4,3-a]pyridine-6-carboxylic acid] | > 100 | – | – | > 200 | > 50000 | > 630 | – |

More lines, main results first:

| IC50 [1] [nM] | EC50 ([3]; A549, 96 h) [nM] | EC50 ([4]; MKN-45, 96 h, MKN45 cells) [nM] | SMILES | EC50 ([2]; EBC-1, EBC1 cells) [nM] | EC50 [3] [nM] | EC50 ([4]; MKN-45, MKN45 cells) [nM] | EC50 ([2]; EBC-1, 96 h, EBC1 cells) [nM] |
| --- | --- | --- | --- | --- | --- | --- | --- |
| 60 to 100 | > 50000 | 100 to 249 | O=C(Nc1cn2nc(Cn3nnc4ccc(-c5cnn(CCO)c5)cc43)ccc2n1)C1CC1 [Compound 24] | – | – | – | 35 to 99 |
| < 30 | 8000 to 25000 | < 100 | C=C(C)c1ccc2nnc(Sc3ccc4nc(NC(=O)C5CC5)cn4n3)n2c1 [Compound 25, N-(6-(6-(prop-1-en-2-yl)-[1,2,4]triazolo[4,3-a]pyridin-3-ylthio)imidazo[1,2-b]pyridazin-2-yl)cyclopropanecarboxamide] | – | – | – | < 35 |
| < 30 | > 19500 | < 100 | CC(C)c1ccc2nnc(Sc3ccc4nc(NC(=O)C5CC5)cn4n3)n2c1 [Compound 26, N-(6-(6-isopropyl-[1,2,4]triazolo[4,3-a]pyridin-3-ylthio)imidazo[1,2-b]pyridazin-2-yl)cyclopropanecarboxamide] | – | – | – | < 35 |
| < 30 | > 50000 | < 100 | CNC(=O)c1ccc(-c2ccc3nnc(Sc4ccc5nc(NC(=O)C6CC6)cn5n4)n3c2)cc1Cl [Compound 28, 2-chloro-4-(3-(2-(cyclopropanecarboxamido)imidazo[1,2-b]pyridazin-6-ylthio)-[1,2,4]triazolo[4,3-a]pyridin-6-yl)-N-methylbenzamide] | – | – | – | < 35 |
| 30 to 59 | > 19500 | > 630 | CN(C)C(=O)Cn1cc(-c2ccc3nnc(Sc4ccc5nc(NC(=O)C6CC6)cn5n4)n3c2)cn1 [Compound 30, N-(6-(6-(1-(2-(dimethylamino)-2-oxoethyl)-1H-pyrazol-4-yl)-[1,2,4]triazolo[4,3-a]pyridin-3-ylthio)imidazo[1,2-b]pyridazin-2-yl)cyclopropanecarboxamide] | – | – | – | > 200 |
| 30 to 59 | > 50000 | < 100 | COCCn1cc(-c2ccc3nnc(Sc4ccc5nc(NC(=O)C6CC6)cn5n4)n3c2)cn1 [Compound 31, N-(6-(6-(1-(2-methoxyethyl)-1H-pyrazol-4-yl)-[1,2,4]triazolo[4,3-a]pyridin-3-ylthio)imidazo[1,2-b]pyridazin-2-yl)cyclopropanecarboxamide] | – | – | – | < 35 |
| < 30 | > 50000 | 100 to 249 | O=C(Nc1cn2nc(Sc3nnc4ccc(-c5cnn(CCO)c5)cn34)ccc2n1)C1CC1 [Compound 32] | – | – | – | 35 to 99 |
| 60 to 100 | > 50000 | > 630 | O=C(NC1CC1)c1ccc2nnc(Sc3ccc4nc(NC(=O)C5CC5)cn4n3)n2c1 [Compound 34, 3-(2-(cyclopropanecarboxamido)imidazo[1,2-b]pyridazin-6-ylthio)-N-cyclopropyl-[1,2,4]triazolo[4,3-a]pyridine-6-carboxamide] | – | – | – | > 200 |
